Data reported in patent publication US4748179A, “β-carbolin-3-carboxylic acid derivatives and their use as benzodiazepine antagonists” (Schering Aktiengesellschaft, priority 1983, dated 1988).

Assays:
[1] = tested on: pentazole-induced convulsions; assay: Antagonism of pentazole-induced convulsions; type: in vivo; details: ip; read-out: Antagonism of pentazole-induced convulsions ED50 i.p.
Description: The antagonism of pentazole induced convulsions was investigated.
The test has been performed according to known test models in pharmacology,e.g., as described in R. A. Turner, Screening Methods in Pharmacology, Academic Press, N.Y. and London 1965, esp. p. 164 ff. or Woodbury, P. M., Perry, I. K. and Schmidt, R. P. Antiepileptic Drugs, Raven Press, N.Y. 1972.

[2] = Inhibition of motor coordination (ataxia); type: in vivo; details: mouse, sc, mice, 30 minutes after subcutaneous administration, read-out: Inhibition of/Ataxia (motor-incoordination)
Method: The inhibition of motor coordination in mice was also studied 30 minutes after subcutaneous administration in accordance with a method described in the litterature (Buus Lassen et al., Acta Pharmacol. et Toxicol., 1971, 39, 1-16).

[3] = tested on: lorazepam-induced ataxia in NMRI mice; assay: Antagonism of benzodiazepine (lorazepam) action in motor incoordination, rotating rod; type: in vivo
Method: Antagonism of benzodiazepine action in motor incoordination.
NMRI mice (20-25 g) were placed on a horizontal wooden rod (diameter 4.3 cm), rotating at a rate of 6 min^-1, 8 cm above the bench. […] The ability of the compounds of this invention to antagonize the effect of benzodiazepine in motor coordination has been determined by determining the ED50 -value. […] The test was performed as follows:
At least 3 groups of mice (8 mice in each group) were injected intraperitoneally with 2 mg/kg lorazepam. 15 minutes later each group of mice were injected with different doses of the test compounds and after further 15 minutes the test for ataxia was performed. Based on the data obtained the ED50 -value was calculated.

benzodiazepine receptors [4] = assay: Displacement of 3H-flunitrazepam specific binding in vitro, rat forebrain membrane suspension; details: 3H-flunitrazepam 1.0 nM, 0° C., pH 7.1
benzodiazepine receptors [5] = assay: In vivo displacement of 3H-flunitrazepam binding to benzodiazepine receptors in living brain; details: mice, usually subcutaneously, 3H-flunitrazepam i.v. 15 minutes later
Description: The pharmaceutical properties of the compounds of the invention have been investigated by determining their capability for displacing radioactively labelled flunitrazepam from such benzodiazepine receptors, and their ability to antagonize pentazole induced convulsions.
The displacement activity of the compounds of the invention has been determined by determining the IC50 value and ED50 value.
The ED50 value represents the dose (mg/kg) of a test substance which causes the specific binding of flunitrazepam to benzodiazepine receptors in a living brain to be reduced to 50% of the control value. Such an in vivo test is carried out as follows:
Groups of mice are injected with the test substance at different doses and usually subcutaneously. 15 minutes later ^3 H-flunitrazepam is giving intravenously to the mice and after further 20 minutes the mice are killed, […]. The ED50 value is determined from dose-response curves.

[6] = tested on: pentazole-induced seizures in diazepam-treated NMRI mice; assay: Antagonism of benzodiazepine (diazepam) action on pentazole-induced seizures; type: in vivo; details: i.p., against 5 mg/kg diazepam i.p.; pentazole 150 mg/kg s.c.; clonic seizures in 50% of animals
Method: Antagonism of Benzodiazepine action on pentazol-induced seizures in NMRI mice (20-25 g).
15 minutes later each group of mice were injected intraperitoneally with different doses of the test compounds and after further 15 minutes the mice received 150 mg/kg pentazol, administered subcutaneously. Clonic seizures within the next 30 minutes were noted. Based on the data obtained the ED50 value was calculated.

SMILES	ED50 [1] [mg/kg]	ED50 at 0.5 h [2] [mg/kg]	induction of ataxia (more than three falls from the rod within 2 min) ([3]; 2 mg/kg i.p. 30 min before test)	3H-flunitrazepam binding in vitro IC50 (benzodiazepine receptors [4]) [ng/mL]	3H-flunitrazepam binding in vivo ED50 (benzodiazepine receptors [5]) [mg/kg]	ED50, antagonism of benzodiazepine action in motor incoordination ([3]; against 2 mg/kg lorazepam i.p., ataxia in 50% of animals, compound 15 minutes after lorazepam) [mg/kg]	ED50, antagonism of benzodiazepine action on pentazole-induced seizures [6] [mg/kg]
O=C1Nc2ccc(Cl)cc2C(c2ccccc2Cl)=NC1O (centres unmarked) [Lorazepam, reference compound]	0.1	0.3	induced ataxia in all animals	1	0.2		
CCOC(=O)c1cc2c(cn1)[nH]c1cccc(OC(C)C)c12 [(CH3)2 CH, H, 5-Isopropoxy-β-carboline-3-carboxylic acid ethylester]	> 100	> 100		0.4	6.4		
CCOC(=O)c1ncc2[nH]c3cccc(OC)c3c2c1CC [CH3, CH3 CH2, 4-Ethyl-5-methoxy-β-carboline-3-carboxylic acid ethylester]	> 100	> 100		1.4	3.0		
CN1C(=O)CN=C(c2ccccc2)c2cc(Cl)ccc21 [Diazepam, reference compound]	3	3		3	1.5		
CCOC(=O)c1ncc2[nH]c3cccc(OC(C)C)c3c2c1C [(CH3)2 CH, CH3, 5-isopropoxy-4-methyl-β-carboline-3-carboxylic acid ethylester]	> 100	> 100		0.6	0.3	1.0	0.7
